The target in assay [1] is T1, JAK3(h) (Homo sapiens, UniProt P52333).
T1 construct: purchased Eurofins (UK)
T1 sequence (P52333 1-1124): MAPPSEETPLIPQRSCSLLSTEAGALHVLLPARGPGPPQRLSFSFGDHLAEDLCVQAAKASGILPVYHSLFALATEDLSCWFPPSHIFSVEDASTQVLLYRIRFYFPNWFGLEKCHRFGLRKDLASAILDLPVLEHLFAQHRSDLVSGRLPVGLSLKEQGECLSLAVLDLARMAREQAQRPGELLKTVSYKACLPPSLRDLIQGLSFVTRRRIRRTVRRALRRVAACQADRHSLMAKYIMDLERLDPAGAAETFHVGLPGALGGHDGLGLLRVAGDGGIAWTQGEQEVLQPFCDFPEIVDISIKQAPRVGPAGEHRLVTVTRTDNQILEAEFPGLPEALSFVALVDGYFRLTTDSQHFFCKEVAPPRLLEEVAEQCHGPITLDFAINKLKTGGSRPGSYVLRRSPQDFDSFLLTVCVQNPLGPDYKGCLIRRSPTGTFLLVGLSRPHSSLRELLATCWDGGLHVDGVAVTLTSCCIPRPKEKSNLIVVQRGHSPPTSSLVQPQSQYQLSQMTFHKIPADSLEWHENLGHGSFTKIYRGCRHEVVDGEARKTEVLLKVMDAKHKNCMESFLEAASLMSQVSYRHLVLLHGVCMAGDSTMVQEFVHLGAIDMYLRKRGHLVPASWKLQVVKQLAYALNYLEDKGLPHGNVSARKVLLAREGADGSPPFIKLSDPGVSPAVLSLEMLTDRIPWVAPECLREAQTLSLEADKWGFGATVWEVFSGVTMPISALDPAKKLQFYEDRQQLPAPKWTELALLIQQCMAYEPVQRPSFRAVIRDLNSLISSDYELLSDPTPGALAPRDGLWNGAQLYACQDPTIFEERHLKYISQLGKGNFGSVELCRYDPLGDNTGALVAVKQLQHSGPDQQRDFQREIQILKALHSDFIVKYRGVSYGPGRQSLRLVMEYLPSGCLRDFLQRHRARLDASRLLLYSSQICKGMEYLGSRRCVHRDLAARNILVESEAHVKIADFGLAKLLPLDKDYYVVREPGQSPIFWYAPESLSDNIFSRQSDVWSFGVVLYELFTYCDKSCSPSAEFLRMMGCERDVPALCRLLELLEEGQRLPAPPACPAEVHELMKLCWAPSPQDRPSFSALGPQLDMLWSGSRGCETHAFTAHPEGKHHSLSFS
In words: In vitro activity test of JAK3 kinase ([γ-33P]-ATP filter assay, Eurofins). Type of assay: biochemical. As for the experimental part: (§1) Recombinant human JAK1, JAK2, JAK3, and Tyk2 proteases, along with major instruments and reagents, were provided by Eurofins in the UK. JAK2, JAK3, and TYK2 were diluted with: 20 mM 3-(N-morpholino)propanesulfonic acid (MOPS), 1 mM EDTA, 0.01% Brij-35.5% glycerol, 0.1% β-mercaptoethanol, 1 mg/mL BSA; JAK1 was diluted with: 20 mM TRIS, 0.2 mM EDTA, 0.1% β-mercaptoethanol, 0.01% Brij-35.5% glycerol. The compound of formula (I) was prepared as a 100% DMSO solution and diluted to 50 times the final assay concentration. The test compound was subjected to a 3-fold serial dilution, with final concentrations ranging from 10 µM to 0.001 µM across 9 concentrations, and the DMSO content in the detection reaction was 2%. The working stock solution of this compound was added as the first component of the reaction to the assay wells, followed by the addition of the remaining components according to the protocol detailed below. JAK3(h) was incubated with 8 mM MOPS pH 7.0, 0.2 mM EDTA, 500 µM GGEEEEYFELVKKKK, 10 mM magnesium acetate, and [γ-^33P]-ATP (activity and concentration were adjusted as needed). The reaction was initiated by adding the Mg/ATP mixture and incubated at room temperature for 40 minutes, then terminated by adding 0.5% phosphoric acid. […] The IC50 results were analyzed using XLFIT5 (205 formula) from IDBS, as detailed in Table 12. […]

The target in assay [2] is T2, TYK2(h) (Homo sapiens, UniProt P29597).
T2 construct: purchased Eurofins (UK)
In words: In vitro activity test of TYK2 kinase ([γ-33P]-ATP filter assay, Eurofins). Type of assay: biochemical. The procedure: as §1, with “TYK2(h)” for “JAK3(h)”, “250” for “500”, “GGMEDIYFEFMGGKKK,” for “GGEEEEYFELVKKKK,”, “concentration” for “concentration were”

T2 sequence (P29597 whole entry): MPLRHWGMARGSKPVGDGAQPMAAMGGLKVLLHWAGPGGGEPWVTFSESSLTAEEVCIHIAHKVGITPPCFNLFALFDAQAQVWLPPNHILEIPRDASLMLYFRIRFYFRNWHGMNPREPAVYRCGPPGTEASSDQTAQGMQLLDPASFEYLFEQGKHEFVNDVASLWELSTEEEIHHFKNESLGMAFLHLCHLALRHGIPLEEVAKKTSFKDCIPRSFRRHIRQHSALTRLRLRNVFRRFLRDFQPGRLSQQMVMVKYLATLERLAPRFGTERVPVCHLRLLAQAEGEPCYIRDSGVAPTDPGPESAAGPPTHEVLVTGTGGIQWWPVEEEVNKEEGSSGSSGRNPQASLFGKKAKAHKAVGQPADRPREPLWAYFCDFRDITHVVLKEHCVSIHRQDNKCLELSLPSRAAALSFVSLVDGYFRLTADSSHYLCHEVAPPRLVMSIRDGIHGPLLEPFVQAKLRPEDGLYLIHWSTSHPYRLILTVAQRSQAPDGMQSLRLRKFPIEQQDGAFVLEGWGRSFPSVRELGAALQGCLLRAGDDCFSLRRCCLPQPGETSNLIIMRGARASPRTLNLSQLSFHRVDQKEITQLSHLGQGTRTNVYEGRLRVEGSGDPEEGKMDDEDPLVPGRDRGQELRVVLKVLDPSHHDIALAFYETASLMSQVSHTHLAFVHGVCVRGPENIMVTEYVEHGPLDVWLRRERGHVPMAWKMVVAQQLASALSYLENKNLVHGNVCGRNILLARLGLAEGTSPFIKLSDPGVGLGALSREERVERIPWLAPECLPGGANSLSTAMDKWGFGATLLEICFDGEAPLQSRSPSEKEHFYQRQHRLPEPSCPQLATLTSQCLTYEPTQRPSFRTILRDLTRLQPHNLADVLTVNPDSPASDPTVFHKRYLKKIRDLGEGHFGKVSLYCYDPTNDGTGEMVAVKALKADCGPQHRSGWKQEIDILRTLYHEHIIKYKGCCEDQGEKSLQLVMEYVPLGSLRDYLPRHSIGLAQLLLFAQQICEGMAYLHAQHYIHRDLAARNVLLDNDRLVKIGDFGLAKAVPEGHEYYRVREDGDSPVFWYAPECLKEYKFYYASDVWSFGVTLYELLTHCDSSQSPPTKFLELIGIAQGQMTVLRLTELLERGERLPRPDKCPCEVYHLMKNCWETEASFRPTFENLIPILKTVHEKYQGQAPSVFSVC

By IC50 is commonly meant the concentration that gives 50% inhibition. A higher IC50 goes with weaker potency in that assay. For the compound `Cn1cc(-c2cn3nccc3c(-c3cnn([C@]4(CC#N)CC5(C[C@H](C#N)C5)C4)c3)n2)cn1` (stereo partly drawn) [Compound of formula (I)], the IC50 in assay [1] came out at 189 nM; in assay [2], 0.9 nM. Also, the “selective inhibition against TYK2 and/or JAK1 and/or JAK2” value in assay [2] (in vitro activity tests for the four kinase subtypes JAK1, JAK2, JAK3, and TYK2) is reported as “good selective inhibition”.

The values are drawn from EP4711367A1, “PYRAZOLOPYRAZINE COMPOUND AND METHOD FOR PREPARING CRYSTAL FORM THEREOF” (CMS Research & Development Pte. Ltd., priority 2023, dated 2024).
